Columns and labels:
[1] = Parent vs. metabolite pharmacokinetic profile after a single 150 mg oral dose; format: in vivo, human; details: 150 mg single oral dose, FIG. 3
Description: Ten healthy male and female volunteers were enrolled in a single ascending dose study of 3 doses of CTP-656 (75, 150 and 300 mg), with a cross-over comparison of 150 mg CTP-656 and 150 mg Kalydeco® (the trade name of ivacaftor) (FIG. 5). Doses of CTP-656 were administered as an aqueous suspension, and Kalydeco was administered as a tablet. All doses of CTP-656 and Kalydeco were administered within 30 minutes after the start of a high-fat containing breakfast. There was a 7 day washout between doses. The objective of the study was to compare the pharmacokinetics of single ascending doses (75, 150, and 300 mg) of CTP-656, to compare the pharmacokinetics of a single dose of 150 mg CTP-656 and 150 mg Kalydeco and to assess the safety and tolerability of CTP-656. […] There is a significant reduction in the production of the metabolites D8-M1 and D6-M6 from CTP-656 relative to the production of the metabolites M1 and M6 from ivacaftor. Thus, the parent-to-M1 ratio of AUC0-24 hr for CTP-656/D8-M1 is 2.0, compared to 0.58 for the ratio of ivacaftor to M1. […] Further, the parent-to-M6 ratio of AUC0-24 hr for CTP-656/D6-M6 is 4.0, compared to 1.5 for the ratio of ivacaftor to M6. […] As a result, the most pharmacologically-active species (i.e., the parent) is the most abundant species for CTP-656, but not for ivacaftor.

[2] = Human crossover study for D9-ivacaftor and D18-ivacaftor (25 mg single dose); format: in vivo; details: 25 mg single oral dose, aqueous suspension, fasted
Description: Six healthy volunteers were enrolled in a cross-over comparison of 25 mg D9-ivacaftor (CTP-656) and 25 mg D18-ivacaftor (FIG. 7A). The objective of the study was to compare the pharmacokinetics of a single dose of 25 mg D9-ivacaftor and 25 mg D18-ivacaftor. Doses of D9-ivacaftor (CTP-656) and D18-ivacaftor were administered as an aqueous suspension. All doses of D9-ivacaftor (CTP-656) and D18-ivacaftor were administered to fasted subjects (three subjects per group). There was a 7 day washout between doses.

PK profile compared to D18-ivacaftor [2]: superior PK profile | Cmax ([2]; human, in vivo): 270 ng/mL | AUC(0-inf) ([2]; human, in vivo, read-out: AUC0-inf, mean): 3810 ng·h/mL | concentration at 24 h ([2]; human, in vivo, read-out: C24 hr, mean): 52.6 ng/mL | Tmax ([2]; human, in vivo, read-out: Tmax, median): 3 h
SMILES: [2H]C([2H])([2H])C(c1cc(C(C)(C)C)c(NC(=O)c2c[nH]c3ccccc3c2=O)cc1O)(C([2H])([2H])[2H])C([2H])([2H])[2H] [CTP-656]
abundance of parent versus metabolites in plasma over time [1]: most abundant species in plasma at all times measured
